Results: publication PMC4775864 (Theranostics, 2016)
No end group written: not given here.

Biological target: T1, endogenous EMMPRIN (Mus musculus, UniProt P18572)
T1 sequence (P18572 22-273 isoform P18572-2 limits assumed): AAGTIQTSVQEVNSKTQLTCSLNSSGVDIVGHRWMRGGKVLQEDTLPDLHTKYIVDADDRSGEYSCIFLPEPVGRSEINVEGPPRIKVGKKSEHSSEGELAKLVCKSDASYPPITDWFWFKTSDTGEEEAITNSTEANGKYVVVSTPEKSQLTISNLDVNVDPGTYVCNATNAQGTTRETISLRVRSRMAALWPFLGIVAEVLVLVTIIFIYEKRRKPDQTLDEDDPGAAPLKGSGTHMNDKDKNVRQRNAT
Assay: Affinity measurements: fluorescence binding to adherent HL1 cells

**Q.** YKLPGHHHHYRP [AP-9] was tested. Which Kd did it give?
**A.** The Kd was 8 ± 0.6 nM.
